Results reported in patent US20250002954A1, “Novel Compound, Use Thereof, and Method for Producing Same, and Compound-Containing Composition, Method for Producing 4-Trehalosamine, and Microorganism” (Microbial Chemistry Research Foundation, priority 2021, published 2025).

Columns and labels:
[1] = tested on: Mycobacterium smegmatis mc^2 (ATCC 700084); assay: Staining of mycobacterium with IMCTA-fluorescein, IMCTA-biotin or IMCTA-azide; type: cell-based
[2] = tested on: Mycobacterium smegmatis bacterial cells; assay: TLC analysis of lipid components of IMCTA-fluorescein stained cells; type: cell-based; conditions: bacterial cells which had ingested IMCTA-fluorescein
Description: TLC analysis was performed on the lipid components of bacterial cell suspension of Mycobacterium smegmatis bacterial cells stained with IMCTA-fluorescein in test example 11-1 or bacterial cell suspension of Mycobacterium smegmatis bacterial cells treated with DMSO.
The TLC analysis was performed based on the method of Kai et al. (M. Kai et al., FEBS Lett 2007, 581, p. 3345-3350).
The bacterial cell suspension of Mycobacterium smegmatis bacterial cells stained with IMCTA-fluorescein in test example 11-1 or the bacterial cell suspension of Mycobacterium smegmatis bacterial cells treated with DMSO was centrifuged at 21,300×g for 1 minute. […]
In the TLC analysis, a Silica gel 60 TLC plate (manufactured by Merck) was used and the solvent was developed with chloroform/methanol/acetone/acetonitrile (90:10:6:1, v/v). The lipid as a whole was detected with phosphomolybdic acid solution similar to that in test example 1 and fluorescence was detected with a UV trans-illuminator (NTFM-20, manufactured by Analytik Jena US LLC).
The phosphomolybdic acid staining patterns for the entire component are shown in FIG. 26A and the fluorescence detection patterns are shown in FIG. 26B. […] In FIG. 26B, the arrows indicate components for which fluorescence is seen only in the IMCTA-fluorescein treated sample.

[3] = Measurement of critical micelle concentration (CMC) with CMC assay kit; type: physicochemical
Description: (§1) For the IMCTA-C8, IMCTA-C9, IMCTA-C10, IMCTA-C11, IMCTA-C12, IMCTA-C13, IMCTA-C14, and IMCTA-C15 (IMCTA-Cn) that were obtained in synthesis examples 1 to 8 and for n-dodecyl-β-D-maltoside (DDM) as control, “critical micelle concentration (CMC)”, “micelle size”, and “Hydrophilic-Lipophilic Balance (HLB) value” were measured or calculated in the following manner.
CMC was measured with a Detergent Critical Micelle Concentration (CMC) Assay Kit (CMC1000, manufactured by ProFoldin) according to the product protocol.

[4] = Measurement of micelle size by dynamic light scattering; type: physicochemical
Description: as §1
Micelle sizes were measured by dynamic light scattering with Zetasizer Nano S (manufactured by Malvern Panalytical).

[5] = tested on: human ovarian cancer cells OVK18 and human malignant melanoma cells Mewo; assay: Autophagy inducing effect on cultured cells (western blotting of autophagy-related proteins); type: cell-based
Description: Expression and phosphorylation patterns of autophagy-related proteins when human ovarian cancer cells or human malignant melanoma cells were treated with 4-trehalosamine and trehalose analog for 24 hours were determined by western blotting.
Human ovarian cancer cells OVK18 (obtained from RIKEN BRC) and human malignant melanoma cells Mewo (JCRB0066) were each inoculated on a 12-well microplate at 8×10^4 cells/mL/well and cultured in DMEM culture medium at 37° C. for 72 hours, after which they were treated with test samples.
The test samples used were the 4-trehalosamine (4TA) obtained in the <Purification process> of production example 10, trehalose (TRH), the IMCTA-Cn compounds obtained in synthesis examples 1 to 8, trehalose ester (TRH-Cn) (manufactured by Dojindo Laboratories), n-dodecyl-β-D-maltoside (DDM), maltose (MLT), sucrose (SCR), and rapamycin (RM). Untreated cells without addition of compounds were used as control.
In treatment with the test samples, in order to avoid contact of a compound with locally high concentration with cells, a half of the culture fluid in each well was taken, and a required amount of test sample was dissolved in it. After dissolving it sufficiently, it was returned to the original well and treated at 37° C. for 24 hours.
Subsequently, culture medium containing the test samples was removed, washed once with PBS, and dissolved with 2×SDS sample buffer not containing 2-mercaptoethanol (2-ME) or bromphenol blue (BPB). After measuring the protein concentration in the dissolved sample with a BCA protein assay kit (manufactured by Thermo Fisher Scientific), 2-ME and BPB were added and the sample was boiled for 5 minutes, which was used as a sample for western blotting.
The western blotting was performed in a similar manner to test example 4 except that anti-LC3 antibody, which is a marker for autophagy, anti-p62, anti-cathepsin D antibody, anti-Phospho-Akt (Ser473) antibody, anti-Akt antibody, anti-Phospho-p70 S6K (T389) antibody, and anti-p70 S6K antibody (all manufactured by Cell Signaling Technology) were used at 1/2,000 dilution as the primary antibodies in the method described in test example 4.
The results for human ovarian cancer cells OVK18 are shown in FIGS. 20A to 20C, and the results for human malignant melanoma cells Mewo are shown in FIGS. 20D to 20F. In FIGS. 20A, 20B, 20D, and 20E, “PCD” denotes precursors of cathepsin D and “CD-HC” denotes cathepsin D heavy chain.

[6] = tested on: human ovarian cancer cells OVK18 and human malignant melanoma cells Mewo; assay: LC3-II expression in combination with autophagy inhibitor (bafilomycin or chloroquine); type: cell-based; conditions: 50 mM 4-trehalosamine, 50 μM IMCTA-C14 or 100 mM trehalose 14 hours, then 200 nM BM or 100 μM CQ 4 hours
Description: As with the test example 10-1, human ovarian cancer cells OVK18 (obtained from RIKEN BRC) and human malignant melanoma cells Mewo (JCRB0066) were each inoculated on a 12-well microplate at 8×10^4 cells/mL/well, and cultured in DMEM culture medium at 37° C. for 72 hours. After that, a half of the culture fluid in each well was taken and each compound was dissolved so that the final concentration is 50 mM 4-trehalosamine, 50 μM IMCTA-C14, or 100 mM trehalose. After dissolving it sufficiently, the cells were returned to the original well and treated at 37° C. for 14 hours. Untreated cells without addition of the compounds were used as control.
After that, each autophagy inhibitor was added so that the final concentration is 200 nM bafilomycin (BM) or 100 μM chloroquine (CQ), and the cells were cultured at 37° C. for 4 hours. A group with no inhibitor added was cultured in a similar way. After culture, they were turned into samples for western blotting in a similar manner to test example 10-1.
The western blotting was performed in a similar manner to test example 4 except that anti-LC3 antibody (manufactured by Cell Signaling Technology) was used at 1/2,000 dilution as the primary antibody in the method described in test example 4. The results for human ovarian cancer cells OVK18 are shown in FIG. 21A, and the results for human malignant melanoma cells Mewo are shown in FIG. 21B.
Also, the results (graphs) of image analysis on the results of western blotting via Image J (manufactured by National Institutes of Health) are shown in FIGS. 21A and 21B (n=10, mean±S.D.). The vertical axis of the graph indicates the value of the amount of expression (expression amount ratio) of LC3-II for the groups with the different compounds added when the amount of expression of LC3-II in the control (untreated cells) is 1. […]

[7] = tested on: aggregated proteins Q74 and SynA53T in SH-SY5Y cells and NH-12 cells; assay: Elimination effect on aggregated protein in cells (Q74, SynA53T); type: cell-based, human; conditions: 100 mM 4-trehalosamine, 70 μM IMCTA-C14 or 100 mM trehalose, 14 hours; SH-SY5Y and NH-12 cells
Description: The effect of 4-trehalosamine or trehalose analog on Q74, which is partial peptide of huntingtin (Htt), the causal protein of Huntington's disease, and SynA53T, which is a mutation of α-synuclein, the causal protein of Parkinson's disease, (both aggregated proteins) was determined in the following manner.
Neuroblastoma cells SH-SY5Y (obtained from European Collection of Authenticated Cell Cultures (ECACC)) and human neuroblastoma cells NH-12 (obtained from RIKEN BRC) were each inoculated at 14×10^4 cells/mL and cultured in DMEM culture medium at 37° C. for 48 hours.
After the culture of SH-SY5Y cells and NH-12 cells, pEGFP-Q74 vector or EGFP-alphasynuclein-A53T (both obtained from addgene), which are expression vectors of aggregated protein, were transfected with transfection reagent (Viafect, manufactured by Promega). After 24 hours from the transfection, 100 mM 4-trehalosamine, 70 μM IMCTA-C14, or 100 mM trehalose was added and the cells were further treated for 14 hours. Untreated cells without addition of the compounds were used as control. After washing the cells three times with PBS, hyposmotic fluid (solution of one tablet of cOmplete, Mini, EDTA-free Protease Inhibitor Cocktail (CM, manufactured by Merck) in 50 mL of pure water) was added and the mixture was shaken on ice for 10 minutes. It was then centrifuged at 21,300×g for 10 minutes to be separated into soluble protein (Sol) and aggregated protein (Agg) […]. Thereafter, they were turned into samples for western blotting in a similar manner to test example 10-1.
The western blotting was performed in a similar manner to test example 4 except that anti-GFP antibody (manufactured by Proteintech) was used at 1/5,000 dilution and anti-LC3 antibody (manufactured by Cell Signaling Technology) was used at 1/2,000 dilution as the primary antibodies in the method described in test example 4. The results for neuroblastoma cells SH-SY5Y are shown in FIGS. 22A and 22B, and the results for human neuroblastoma cells NH-12 are shown in FIGS. 22C and 22D. […]

Compound	ingestion into bacterial cells and fluorescence (staining) ([1]; 10 μg/mL IMCTA-fluorescein, 30 μg/mL IMCTA-biotin, 10 μg/mL IMCTA-azide, 37° C., 8 hours)	ingestion in the presence of sucrose (blocking) ([1]; sucrose 1% or 3%)	ingestion in the presence of trehalose (blocking) ([1]; trehalose 1% or 3%)	fluorescent lipids detected by TLC [2]	CMC [3] [mM]	Micelle size [4] [nm]	accumulation of PCD (precursors of cathepsin D) ([5]; 24 hours)	concentration giving same or higher LC3-II expression, relative to trehalose ([5]; 24 hours)	p62 ([5]; 24 hours)	pAkt ([5]; 24 hours)	phosphorylation of p70 S6K ([5]; 24 hours)	expression of LC3-II (autophagy marker) ([5]; 24 hours treatment, western blotting)	expression of LC3-II in combination with bafilomycin (BM) or chloroquine (CQ) [6]	aggregate of Q74 and aggregate of SynA53T [7]
O=C(N[C@@H]1C(CO)O[C@H](O[C@H]2OC(CO)[C@@H](O)C(O)C2O)C(O)C1O)c1ccc2c(c1)C(=O)OC21c2ccc(O)cc2Oc2cc(O)ccc21 (some centres unmarked) [IMCTA-fluorescein]	ingested into Mycobacterium smegmatis bacterial cells and emitted fluorescence	no significant inhibition	inhibition was observed in the presence of 1% trehalose	two fluorescent lipids were detected										
CCCCCCCCCCCCCCN[C@@H]1C(CO)O[C@H](O[C@H]2OC(CO)[C@@H](O)C(O)C2O)C(O)C1O (some centres unmarked) [IMCTA-C14]					0.11	16.5 ± 4.4	no accumulation of PCD was observed	several thousand times lower than trehalose	accumulation trend of p62	decreasing trend of pAkt	p70 S6K was not dephosphorylated	particularly strong expression	increased expression of LC3-II	significantly decreased
